From patent US20150025031A1, “METABOLIC DOWNREGULATION FOR CELL SURVIVAL” (WAKE FOREST UNIVERSITY HEALTH SCIENCES, priority 2012, published 2015)
“Also recorded” adds a separate entry of the source.

Columns and labels:
ischemic skin flap = experiment: Ischemic skin flap model; type: in vivo, nude mice; details: 100 mM in 2% agarose gel, vs control
Method: (§1) Skin flap model: The u-shaped skin flaps were created on the back of the nude mice, then silicone sheet with 100 mM CDA-containing 2% agarose gel on top of it was placed subcutaneously between muscle and skin layer (FIGS. 9A-9B). Control group received only the materials without CDA incorporated (n=3 per each group). At day 3, the flap necrosis was photographed, and H&E sections were prepared and microscopically examined.
as §1, with “The” for “Skin flap model: The”, “gel (A9045, Sigma)” for “gel”, “(FIG. 29A).” for “(FIGS. 9A-9B).”, “(n=3).” for “(n=3 per each group).”, “were” for “were prepared and”

C2C12 mouse myoblasts [1] = system: C2C12 mouse myoblasts
[2] = system: tibialis anterior (TA) muscle; experiment: Compartment syndrome (compression injury) model, tibialis anterior muscle function; type: in vivo, Sprague Dawley rats; details: for recovery in muscle function vs control group / percent recovery of muscle function: tetanic outcome at 100 Hz
Method: Compartment syndrome model: Neonatal blood pressure cuffs were placed on the hind limbs of Sprague Dawley rats. A pressure of 130-140 mmHg was held for 3 hrs to induce compartment syndrome in the tibialis anterior (TA) muscle. The experimental group received 50 mM CDA in 300 uL saline daily up to day 2 after injury whereas the control group only received an equal volume of saline (n=6 per each group). The measurement of muscle tetanic force was used to assess in vivo muscle function at before injury and day 3 & 7.
All animal studies were performed in strict compliance with Wake Forest University IACUC and NIH guidelines. Male Lewis rats (6-8 weeks old, Harlan) were anesthetized with 2-3% isofluorane prior to all procedures. A #2 sized neonatal blood pressure cuff (Trimline Medical Products Tempa-Kuff) was tightened around the hind limb proximal to the extensor digitorum longus (EDL) muscle. The time and amount of pressure used varied as indicated. Due to the extended length of anesthesia, rats were administered IP injections of saline over the course of the procedure. Rats were euthanized at 1, 2, 4, 7, 14 or 35d post injury. At least 3 separate experiments were analyzed.
Neonatal blood pressure cuffs were placed on the hind limbs of Sprague Dawley rats. A pressure of 130-140 mmHg was held for 3 hours to induce compartment syndrome in the tibialis anterior (TA) muscle. The experimental group received injection of 30 mM cladribine in 200 μL saline daily up to day 2 after injury whereas the control group only received an equal volume of saline (n=6). The measurement of muscle tetanic force was used to assess in vivo muscle function at before and right after injury, day 3, 7, 11 and 14.
Contractile function (i.e., torque-frequency relationship) of the left anterior crural muscles was measured in vivo using similar methodology as previously described for mice (Kalka et al., 2000, Proc Natl Acad Sci USA 97:3422-3427; Boutilier, 2001, J Exp Biol 204:3171-3181) After rats were anesthetized (2-2.5% isoflurane), the left hindlimb was aseptically prepared. The rat was then placed on a heated platform. The left knee was clamped and the left foot was secured to a custom-made foot plate that is attached to the shaft of an Aurora Scientific 305C-LR-FP servomotor, which in turn was controlled using a PC. Sterilized percutaneous needle electrodes were inserted through the skin for stimulation of the left common peroneal nerve. Electrical stimulus was applied using a Grass S88 stimulator with a constant current SIU (Grass Model PSIU6). Stimulation voltage and needle electrode placement were optimized first with a series of twitch contractions at 1 hz and then with 5 to 10 isometric contractions (400 ms train of 0.05-0.1 ms pulses at 100 Hz). Contractile function of the anterior crural muscles was assessed by measuring maximal isometric torque as a function of stimulation frequency (1-200 Hz). For real-time analysis of torque and length changes, voltage outputs were sampled at 4000 Hz, converted to a digital signal using an A/D board (National Instruments PCI 6221) and recorded using a PC loaded with a custom-made Labview®-based program (provided by the U.S. Army Institute of Surgical Research).

C2C12 mouse myoblasts [3] = details: 5 mM, regardless of the presence of ADA
[4] = system: Rat tibialis anterior (TA) muscle tissues; experiment: In vitro ischemic tibialis anterior muscle tissue survival (H&E, TUNEL); type: cell-based, Sprague Dawley rats; details: 5 mM injected, 3 days incubation
Method: Rat tibialis anterior (TA) muscle tissues were dissected immediately after sacrifice of Sprague Dawley rats (17 weeks old, 380-400 g, Harlan), injected with blank, 5 mM of adenosine or cladribine, and then incubated in 5 mL of complete media for 3 days.
The tissue samples were fixed in 10% neutral buffered formalin (Sigma-Aldrich), 6 μm sections were generated by a cryotome (Leica), and stained with hematoxyline and eosin (H&E) and with TUNEL staining. Microscopic analyses were performed using a light microscope (Zeiss M1) and ImagePro software.

[5] = target: T1, adenosine deaminase (ADA) (Homo sapiens, UniProt P00813); experiment: Cell viability with adenosine derivatives in presence or absence of ADA, normoxic conditions (Example 2); type: cell-based; details: for conversion by ADA / stability towards adenosine degrading enzymes: presence of ADA
T1 construct: purchased Sigma
T1 sequence (P00813 1-363): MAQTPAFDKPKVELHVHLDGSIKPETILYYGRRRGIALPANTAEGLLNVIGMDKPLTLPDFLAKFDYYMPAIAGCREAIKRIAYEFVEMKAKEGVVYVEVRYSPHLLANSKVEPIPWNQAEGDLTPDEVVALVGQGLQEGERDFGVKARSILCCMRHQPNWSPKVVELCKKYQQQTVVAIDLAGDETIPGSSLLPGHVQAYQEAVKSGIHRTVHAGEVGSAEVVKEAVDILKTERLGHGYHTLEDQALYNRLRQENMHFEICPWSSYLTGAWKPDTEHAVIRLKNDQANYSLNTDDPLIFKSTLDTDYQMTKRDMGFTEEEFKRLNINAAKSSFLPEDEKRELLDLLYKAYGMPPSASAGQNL
Method: Three known ADA inhibitors were examined to evaluate the efficacies of adenosine derivatives: cladribine, pentostatin, and fludarabine phosphate. They have similar structures and molecular weights compared to adenosine, but different functional groups in the structures. Metabolic rate of cells were indirectly analyzed by cell viability in the presence or absence of adenosine derivatives and ADA in various doses. Cell viability with the drugs was evaluated under normoxic conditions.
Adenosine (Sigma-Aldrich), cladribine (Sigma, 2-Chloro-2′-deoxyadenosine), pentostatin (Tocris biosciences), and fludarabine phosphate (LGM Pharma) were used throughout this study.

For Nc1nc(Cl)nc2c1ncn2[C@H]1C[C@H](O)[C@@H](CO)O1 [cladribine, 2-Chloro-2′-deoxyadenosine], the “histological examination of skin flap (H&E)” value (ischemic skin flap; 3 days) was “better preservation of general tissue architecture, thickness of the skin and epidermis height”, the “distal flap necrosis (skin discoloration)” value (ischemic skin flap; subcutaneous, day 3 post-operation) was “clearly reduced” and the “metabolism after drug and hypoxia removed” value (C2C12 mouse myoblasts [1]; 5 mM, with or without ADA) was “regained metabolism activity”. The “cellular metabolism under hypoxia” value (C2C12 mouse myoblasts [1]; 5 mM, with or without ADA, MTS) was “kept in hypometabolic steady state without being affected by ADA”, the “metabolic activity per cell vs adenosine treated cells” value (C2C12 mouse myoblasts [1]; hypoxia, in the presence and absence of ADA) was “significantly lower metabolic activity per cell” and the “TA muscle twitch isometric torque” value ([2]; 30 mM in 200 μL saline daily up to day 2, 7 days after injury) was “significantly increased”. The “recovery in muscle function vs control group” value ([2]; 30 mM in 200 μL saline daily up to day 2) was “significant acceleration of recovery in muscle function”, the “recovery in muscle function vs control group” value ([2]; 30 mM in 200 μL saline daily up to day 2, listed as CDA) was “significant increase in percent recovery up to day 11” and the “newly forming vessels (H&E, immunostaining)” value ([2]; 30 mM in 200 μL saline daily up to day 2, vs saline group) was “more newly forming vessels”. For the same compound, the “anterior crural muscle twitch isometric torque” value ([2]; 50 mM in 300 uL saline daily up to day 2, 7 days after injury) was “significantly increased”, the “percent recovery of muscle function” value ([2]; day 3, 50 mM in 300 uL saline daily up to day 2) was about 10% and the “percent recovery of muscle function” value ([2]; day 7, 50 mM in 300 uL saline daily up to day 2) was about 35%. The “cell population under hypoxic condition” value (C2C12 mouse myoblasts [3]; 7 days hypoxia) was “maintained minimal population with significant difference when compared to control”, the “proliferation after drug and hypoxia removed” value (C2C12 mouse myoblasts [3]) was “regained their proliferation capability” and the “muscle structure (H&E)” value [4] was “most preserved muscle structure”. For the same compound, the “number of live nuclei (TUNEL)” value [4] was “increased number of live nuclei”, the area of fiber ([4]; vs control and adenosine) was “significantly increased area of fiber” and the “recovery of metabolic state after drug removal” value ([5]; drugs removed on day 5) was “recovered their normal metabolic state once the drugs were removed”. The “depression of cell metabolic rate (cell viability) in presence of ADA” value ([5]; normoxic conditions, with or without ADA, various doses) was “best able to inhibit ADA and depress the cells' metabolic rate; also recorded: maintained the cells in hypometabolic steady state the longest”, the “conversion by ADA / stability towards adenosine degrading enzymes” value [5] was “bypassed the conversion by ADA” and the “conversion by ADA / stability towards adenosine degrading enzymes” value ([5]; listed as CDA) was “more stable than adenosine in the presence of adenosine degrading enzymes”.
